The text below walks through data of patent publication US12329799B2, “Peptidyl inhibitors of calcineurin-NFAT interaction” (Ohio State Innovation Foundation, priority 2018, dated 2025).

By Kd is commonly meant the equilibrium constant for the complex coming apart.

Molecules are shown by their SMILES. Where two headings read alike, the source gives them in different places. Positions of bridges follow the written chain, without caps; N, C: chain ends. Non-standard residues stand in square brackets, D forms with d. Residues, ends and D or L forms follow the SMILES beside them. Chains are numbered I, II in the order given. *: point of attachment. FITC = O=C1OC2(c3ccc(O)cc3Oc3cc(O)ccc32)c2ccc(NC(=S)*)cc21; Benzoyl(2,3,4,5,6-F5) = O=C(c1c(F)c(F)c(F)c(F)c1F)*; Benzoyl(2,3-Cl2) = O=C(c1cccc(Cl)c1Cl)*; Phe(4-F) = N[C@@H](Cc1ccc(F)cc1)C(=O)O; 2Nal = N[C@@H](Cc1ccc2ccccc2c1)C(=O)O; Val(3-OH) = CC(C)(O)[C@H](N)C(=O)O; X4 = O=C(c1cc(F)c(F)c(F)c1F)*; Chg = N[C@H](C(=O)O)C1CCCCC1; Tle = CC(C)(C)[C@H](N)C(=O)O; X6 = O=C(c1ccc(Br)c(Cl)c1)*; X5 = Cc1ccc(C(=O)*)c(F)c1F; X1 = O=C(c1ccnc(Cl)c1Cl)*; AEEA = NCCOCCOCC(=O)O; βAla = NCCC(=O)O

A short description of series [1]: Aqueous solubility (turbidity at 780 nm). Type of series: physicochemical. As to the method:
The peptide was serially diluted from a DMSO stock into PBS (pH 7.4) containing 5% DMSO and the optical density of the resulting solutions were measured at 780 nm.
Solubility. Peptides were diluted from a DMSO stock into PBS, pH 7.4 and then serially diluted in identical buffer to standardize DMSO concentration in clear, 96-well plates. The solutions were allowed to stand for 1 h at RT without mixing and then turbidity was measured at 780 nm using a Tecan Infinite M1000 plate reader.

For series [2], the target named is T1, Calcineurin (GST-CN) (Homo sapiens, UniProt Q08209).
T1 construct: made in house; host or cells: E. coli BL21
T1 sequence (Q08209 2-347 limits assumed): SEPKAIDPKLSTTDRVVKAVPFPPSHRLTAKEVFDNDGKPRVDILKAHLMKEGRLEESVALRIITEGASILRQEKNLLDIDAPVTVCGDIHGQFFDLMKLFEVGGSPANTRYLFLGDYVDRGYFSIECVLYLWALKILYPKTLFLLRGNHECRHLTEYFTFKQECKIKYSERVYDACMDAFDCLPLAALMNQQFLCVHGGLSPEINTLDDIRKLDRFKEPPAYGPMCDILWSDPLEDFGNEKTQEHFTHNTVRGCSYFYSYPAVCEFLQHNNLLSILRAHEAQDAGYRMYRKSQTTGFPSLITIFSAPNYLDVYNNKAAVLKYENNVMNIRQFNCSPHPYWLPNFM
Description: Direct binding of FITC-labeled peptides to CN by fluorescence anisotropy/polarization. The note with it: for Kd: Table 5, acyl-ZIZITGPHEEYK(FITC)-NH2 peptides, FA. The procedure:
To facilitate concentration determination and binding analysis by fluorescence anisotropy (FA), a dipeptide Tyr-Lys was added to the C-terminus of ZIZIT (SEQ ID NO:1) and the lysine side chain was labeled with fluorescein isothiocyanate (FITC). The resulting peptide,
Fluorescence Polarization. Fluorescence polarization (FP) experiments were carried out to measure binding affinity in both direct and competitive binding experiments using GST-CN and peptides prepared as mentioned previously. For direct binding, 50 nM FITC-labeled peptide was prepared in PBS, pH 7.4 containing 5 mM DTT and 0.01% Triton-X100 and then added to GST-CN diluted in PBS containing 0.01% Triton-X100. Solutions were incubated for 1 h at RT with gentle mixing and then pipetted into black 384-well microplates. Fluorescence polarization was measured on a TECAN Infinite M1000 plate reader and titration curves were fitted using both KaelidaGraph v 3.6 and GraphPad PRISM to the equation:
[formula] • where FP is the measured fluorescence polarization, Amin is the minimum FP value, Amax is the maximum FP signal, Qb is the quantum yield of the bound fluorophore, Qf is the quantum yield of the free fluorophore, L is the ligand concentration, KD is the dissociation constant and x is the protein concentration.
For orientation: Polarisation of emitted light reports the rotation of a fluorescent probe.

For `CC[C@H](C)[C@H](NC(=O)[C@@H](NC(=O)c1cccc(Cl)c1Cl)C(C)(C)C)C(=O)N[C@H](C(=O)N[C@H](C(=O)N[C@H](C(=O)N[C@@H](CCC(N)=O)C(=O)N[C@@H](Cc1c[nH]cn1)C(=O)N[C@H](CC(C)C)C(=O)N[C@@H](CO)C(=O)NCCC(=O)N[C@@H](CCCCNC(=S)Nc1ccc2c(c1)C(=O)OC21c2ccc(O)cc2Oc2cc(O)ccc21)C(N)=O)[C@@H](C)O)[C@@H](C)CC)C(C)(C)C` [Peptide 14, Dcb-ZIZIT-Gln-His-leu-Ser-βAla-Lys (FITC)] ({Benzoyl(2,3-Cl2)}-[Tle]I[Tle]ITQH[dL]S[βAla]K(FITC)-NH2; C-terminus assumed), in series [1], the “aqueous solubility (qualitative)” value is “good aqueous solubility”. In the case of `CC[C@H](C)[C@H](NC(=O)[C@@H](NC(=O)c1cc(F)c(F)c(F)c1F)C(C)(C)C)C(=O)N[C@H](C(=O)N[C@H](C(=O)N[C@H](C(=O)NCC(=O)N1CCC[C@H]1C(=O)N[C@@H](Cc1c[nH]cn1)C(=O)N[C@@H](CCC(=O)O)C(=O)N[C@@H](CCC(=O)O)C(=O)N[C@@H](Cc1ccc(O)cc1)C(=O)N[C@@H](CCCCNC(=S)Nc1ccc2c(c1)C(=O)OC21c2ccc(O)cc2Oc2cc(O)ccc21)C(N)=O)[C@@H](C)O)[C@@H](C)CC)C(C)(C)C` [Peptide 7] (X4-[Tle]I[Tle]ITGPHEEYK(FITC)-NH2), the Kd in series [2] (KD (nM)) was in the range of 32 to 189 nM. Take `CC[C@H](C)[C@H](NC(=O)[C@@H](NC(=O)c1ccc(C)c(F)c1F)C(C)(C)C)C(=O)N[C@H](C(=O)N[C@H](C(=O)N[C@H](C(=O)NCC(=O)N1CCC[C@H]1C(=O)N[C@@H](Cc1c[nH]cn1)C(=O)N[C@@H](CCC(=O)O)C(=O)N[C@@H](CCC(=O)O)C(=O)N[C@@H](Cc1ccc(O)cc1)C(=O)N[C@@H](CCCCNC(=S)Nc1ccc2c(c1)C(=O)OC21c2ccc(O)cc2Oc2cc(O)ccc21)C(N)=O)[C@@H](C)O)[C@@H](C)CC)C(C)(C)C` [Peptide 8] (X5-[Tle]I[Tle]ITGPHEEYK(FITC)-NH2): in series [2] (read-out: KD), the equilibrium dissociation constant (Kd) lay within 32 to 189 nM. On the same count and under the same terms, with `CC[C@H](C)[C@H](NC(=O)[C@@H](NC(=O)c1c(F)c(F)c(F)c(F)c1F)C(C)(C)C)C(=O)N[C@H](C(=O)N[C@H](C(=O)N[C@H](C(=O)NCC(=O)N1CCC[C@H]1C(=O)N[C@@H](Cc1c[nH]cn1)C(=O)N[C@@H](CCC(=O)O)C(=O)N[C@@H](CCC(=O)O)C(=O)N[C@@H](Cc1ccc(O)cc1)C(=O)N[C@@H](CCCCNC(=S)Nc1ccc2c(c1)C(=O)OC21c2ccc(O)cc2Oc2cc(O)ccc21)C(N)=O)[C@@H](C)O)[C@@H](C)CC)C(C)(C)C` [Peptide 11] ({Benzoyl(2,3,4,5,6-F5)}-[Tle]I[Tle]ITGPHEEYK(FITC)-NH2) the figure was 32 to 189 nM. As for `CC[C@H](C)[C@H](NC(=O)[C@@H](NC(=O)c1cccc(Cl)c1Cl)C(C)(C)C)C(=O)N[C@H](C(=O)N[C@H](C(=O)N[C@H](C(=O)NCC(=O)N1CCC[C@H]1C(=O)N[C@@H](Cc1c[nH]cn1)C(=O)N[C@@H](CCC(=O)O)C(=O)N[C@@H](CCC(=O)O)C(=O)N[C@@H](Cc1ccc(O)cc1)C(=O)N[C@@H](CCCCNC(=S)Nc1ccc2c(c1)C(=O)OC21c2ccc(O)cc2Oc2cc(O)ccc21)C(N)=O)[C@@H](C)O)[C@@H](C)CC)C(C)(C)C` [Peptide 9] ({Benzoyl(2,3-Cl2)}-[Tle]I[Tle]ITGPHEEYK(FITC)-NH2), the Kd in series [2] (KD (nM)) is 32 to 189 nM. Turning to `CC[C@H](C)[C@H](NC(=O)[C@@H](NC(=O)c1cccc(Cl)c1Cl)C(C)(C)C)C(=O)N[C@H](C(=O)N[C@H](C(=O)N[C@H](C(=O)NCCOCCOCC(=O)N[C@@H](CCCCNC(=S)Nc1ccc2c(c1)C(=O)OC21c2ccc(O)cc2Oc2cc(O)ccc21)C(N)=O)[C@@H](C)O)[C@@H](C)CC)C(C)(C)C` [Peptide 12, Dcb-ZIZIT-miniPEG-Lys (FITC)] ({Benzoyl(2,3-Cl2)}-[Tle]I[Tle]IT[AEEA]K(FITC)-NH2; C-terminus assumed), the “decrease in binding affinity on removal of C-terminal pentapeptide (GPHEE)” value in series [2] (peptide 12 versus peptide 9) is 17 fold.

`CC[C@H](C)[C@H](NC(=O)[C@@H](NC(=O)c1ccc(Br)c(Cl)c1)C(C)(C)C)C(=O)N[C@H](C(=O)N[C@H](C(=O)N[C@H](C(=O)NCC(=O)N1CCC[C@H]1C(=O)N[C@@H](Cc1c[nH]cn1)C(=O)N[C@@H](CCC(=O)O)C(=O)N[C@@H](CCC(=O)O)C(=O)N[C@@H](Cc1ccc(O)cc1)C(=O)N[C@@H](CCCCNC(=S)Nc1ccc2c(c1)C(=O)OC21c2ccc(O)cc2Oc2cc(O)ccc21)C(N)=O)[C@@H](C)O)[C@@H](C)CC)C(C)(C)C` [Peptide 10] (X6-[Tle]I[Tle]ITGPHEEYK(FITC)-NH2): the Kd in series [2] (read-out: KD) lay within 32 to 189 nM. As for `CC[C@H](C)[C@H](NC(=O)[C@@H](NC(=O)[C@@H](NC(=O)[C@@H](NC(=O)c1ccnc(Cl)c1Cl)C(C)(C)C)C1CCCCC1)C(C)(C)O)C(=O)N[C@H](C(=O)N[C@@H](CCC(N)=O)C(=O)N[C@@H](Cc1c[nH]cn1)C(=O)N[C@H](CC(C)C)C(=O)N[C@@H](CO)C(=O)NCCC(=O)N[C@@H](CCCCNC(=O)CC[C@@H]1NC(=O)[C@@H](CCCNC(=N)N)NC(=O)[C@H](CCCNC(=N)N)NC(=O)[C@@H](CCCNC(=N)N)NC(=O)[C@H](CCCNC(=N)N)NC(=O)[C@H](Cc2ccc3ccccc3c2)NC(=O)[C@@H](Cc2ccccc2)NC1=O)C(N)=O)[C@@H](C)O` [Compound 44, (DCNA)-Tle-Chg-Bhv-Ile-Thr-Gln-His-(D-Leu)-Ser-βAla-Lys{[cyclo-(Gln-(D-Arg)-Arg-(D-Arg)-Arg-(2-Nal)-(D-Phe)]}-NH2] (I: X1-[Tle][Chg][Val(3-OH)]ITQH[dL]S[βAla]K-NH2 / II: cyclo([2Nal]R[dR]R[dR]E[dF]); amide I:11-II:6 (inferred); ring closure inferred), in series [1], the “solubility relative to CNI103” value is reported as “less soluble”. On to `CC[C@H](C)[C@H](NC(=O)[C@@H](NC(=O)c1cccc(Cl)c1Cl)C(C)(C)C)C(=O)N[C@H](C(=O)N[C@H](C(=O)N[C@H](C(=O)N[C@@H](CCC(N)=O)C(=O)N[C@@H](Cc1c[nH]cn1)C(=O)N[C@H](CC(C)C)C(=O)N[C@@H](Cc1c[nH]cn1)C(=O)NCCC(=O)N[C@@H](CCCCNC(=S)Nc1ccc2c(c1)C(=O)OC21c2ccc(O)cc2Oc2cc(O)ccc21)C(N)=O)[C@@H](C)O)[C@@H](C)CC)C(C)(C)C` [Peptide 15, Dcb-ZIZIT-Gln-His-leu-His-βAla-Lys (FITC)] ({Benzoyl(2,3-Cl2)}-[Tle]I[Tle]ITQH[dL]H[βAla]K(FITC)-NH2; C-terminus assumed), for which the “aqueous solubility (qualitative)” value in series [1] is reported as “lower solubility”. Regarding `CC[C@H](C)[C@H](NC(=O)[C@@H](NC(=O)c1cccc(Cl)c1Cl)C(C)(C)C)C(=O)N[C@H](C(=O)N[C@H](C(=O)N[C@H](C(=O)N[C@@H](Cc1ccc(O)cc1)C(=O)N[C@H](CCC(=O)O)C(=O)N[C@@H](Cc1ccc(F)cc1)C(=O)NCC(=O)NCCC(=O)N[C@@H](CCCCNC(=S)Nc1ccc2c(c1)C(=O)OC21c2ccc(O)cc2Oc2cc(O)ccc21)C(N)=O)[C@@H](C)O)[C@@H](C)CC)C(C)(C)C` [Peptide 13, Dcb-ZIZIT-Tyr-glu-Fpa-Gly-βAla-Lys (FITC)] ({Benzoyl(2,3-Cl2)}-[Tle]I[Tle]ITY[dE][Phe(4-F)]G[βAla]K(FITC)-NH2; C-terminus assumed), the “aqueous solubility (qualitative)” value in series [1] is recorded as “good aqueous solubility”.
